Measurements from patent US10730874B2 (Shire Human Genetic Therapies, Inc., priority 2018, dated 2020).
Read-outs that look alike come from different tables or passages of the source.

Target: human activated kallikrein enzyme (plasma kallikrein) (Homo sapiens (Human), UniProt P03952)
Assay: Inhibition of human activated plasma kallikrein, fluorogenic peptide substrate assay, 500 pM enzyme format
Type: biochemical
Protocol: Example compounds were evaluated for inhibition of the human activated kallikrein enzyme in two formats of an assay employing a fluorogenic peptide substrate. In one assay format, the concentrations of reagents were as follows: 20 mM Tris pH 7.5, 1 mM EDTA, 150 mM sodium chloride, 0.1% PEG-400, 0.1% Triton X-100, 500 pM activated kallikrein enzyme, 300 uM Pro-Phe-Arg-7-amido-4-methylcoumarin substrate. Prior to reaction initiation with substrate, enzyme and inhibitors were preincubated for 30 min at RT. After initiation with substrate, reactions were incubated for 10 min at RT and fluorescence emission at 460 nm from 380 nm excitation measured with a microplate reader. In another assay format, the concentrations of reagents were as follows: 20 mM Tris pH 7.5, 1 mM EDTA, 150 mM sodium chloride, 0.1% PEG-400, 0.1% Triton X-100, 5 pM activated kallikrein enzyme, 300 uM Pro-Phe-Arg-7-amido-4-methylcoumarin substrate. Prior to reaction initiation with substrate, enzyme and inhibitors were preincubated for 30 min at RT. After initiation with substrate, reactions were incubated for 18 h at RT and fluorescence emission at 460 nm from 380 nm excitation measured with a microplate reader.

[1] = 500 pM activated kallikrein enzyme, 300 uM Pro-Phe-Arg-7-amido-4-methylcoumarin substrate, 30 min preincubation, 10 min at RT, read-out: Primary Dose Response Assay: Average EC50

human activated kallikrein enzyme (plasma kallikrein), sequence (P03952 391-638): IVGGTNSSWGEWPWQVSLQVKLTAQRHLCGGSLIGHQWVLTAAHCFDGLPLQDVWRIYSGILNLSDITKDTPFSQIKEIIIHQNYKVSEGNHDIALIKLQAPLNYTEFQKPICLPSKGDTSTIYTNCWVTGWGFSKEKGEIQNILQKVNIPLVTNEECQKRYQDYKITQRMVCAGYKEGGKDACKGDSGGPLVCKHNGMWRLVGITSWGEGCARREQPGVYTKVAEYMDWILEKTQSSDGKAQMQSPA
human activated kallikrein enzyme (plasma kallikrein), sequence (P03952 20-390 partner): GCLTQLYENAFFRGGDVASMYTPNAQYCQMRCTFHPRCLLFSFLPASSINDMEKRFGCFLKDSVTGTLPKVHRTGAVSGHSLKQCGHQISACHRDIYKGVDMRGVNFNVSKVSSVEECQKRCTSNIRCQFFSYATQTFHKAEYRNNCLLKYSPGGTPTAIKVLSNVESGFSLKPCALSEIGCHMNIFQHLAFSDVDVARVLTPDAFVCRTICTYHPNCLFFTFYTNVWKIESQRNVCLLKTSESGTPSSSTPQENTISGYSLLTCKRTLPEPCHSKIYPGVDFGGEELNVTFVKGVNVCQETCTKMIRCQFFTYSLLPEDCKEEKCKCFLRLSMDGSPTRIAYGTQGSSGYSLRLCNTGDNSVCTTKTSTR

SMILES | EC50 [1] [nM] | EC50 [nM]
O=C(NCc1ncn2ccc(Cl)cc12)c1cnn(Cc2ccc3ncc(Cl)cc3c2)c1 [Example I-1, N-((7-chloroimidazo[1,5-a]pyridin-1-yl)methyl)-1-((3-chloroquinolin-6-yl)methyl)-1H-pyrazole-4-carboxamide] | 10 to 100 | 
O=C(NCc1ncn2ccc(Cl)cc12)c1cnn(Cc2cn3cc(C4CC4)ccc3n2)c1 [Example I-2, N-((7-chloroimidazo[1,5-a]pyridin-1-yl)methyl)-1-((6-cyclopropylimidazo[1,2-a]pyridin-2-yl)methyl)-1H-pyrazole-4-carboxamide] | < 1 | 
O=C(NCc1ncn2ccc(Cl)cc12)c1ccnc(Cc2ccc3ncc(Cl)cc3c2)c1 [Example I-3, N-((7-chloroimidazo[1,5-a]pyridin-1-yl)methyl)-2-((3-chloroquinolin-6-yl)methyl)isonicotinamide] | 10 to 100 | 
Cc1ccn2cnc(CNC(=O)c3cnn(Cc4cn5cc(C6CC6)ccc5n4)c3)c2c1 [Example I-4, 1-((6-cyclopropylimidazo[1,2-a]pyridin-2-yl)methyl)-N-((7-methylimidazo[1,5-a]pyridin-1-yl)methyl)-1H-pyrazole-4-carboxamide] | 1 to 10 | 
O=C(NCc1ncn2ccc(Br)cc12)c1cnn(Cc2cn3cc(C4CC4)ccc3n2)c1 [Example I-5, N-((7-bromoimidazo[1,5-a]pyridin-1-yl)methyl)-1-((6-cyclopropylimidazo[1,2-a]pyridin-2-yl)methyl)-1H-pyrazole-4-carboxamide] | < 1 | 
O=C(NCc1ncn2ccc(Cl)cc12)c1cnn(Cc2nc3ccc(C4CC4)cn3n2)c1 [Example I-6, N-((7-chloroimidazo[1,5-a]pyridin-1-yl)methyl)-1-((6-cyclopropyl-[1,2,4]triazolo[1,5-a]pyridin-2-yl)methyl)-1H-pyrazole-4-carboxamide] | 1 to 10 | 
Cc1c(Cl)ccc2nc(Cn3cc(C(=O)NCc4ncn5ccc(Cl)cc45)cn3)cn12 [Example I-7, 1-((6-chloro-5-methylimidazo[1,2-a]pyridin-2-yl)methyl)-N-((7-chloroimidazo[1,5-a]pyridin-1-yl)methyl)-1H-pyrazole-4-carboxamide] | 1 to 10 | 
CC(C)c1ccc2nc(Cn3cc(C(=O)NCc4ncn5ccc(Cl)cc45)cn3)cn2c1 [Example I-8, N-((7-chloroimidazo[1,5-a]pyridin-1-yl)methyl)-1-((6-isopropylimidazo[1,2-a]pyridin-2-yl)methyl)-1H-pyrazole-4-carboxamide] | < 1 | 
Cc1cccc2nc(Cn3cc(C(=O)NCc4ncn5ccc(Cl)cc45)cn3)cn12 [Example I-9, N-((7-chloroimidazo[1,5-a]pyridin-1-yl)methyl)-1-((5-methylimidazo[1,2-a]pyridin-2-yl)methyl)-1H-pyrazole-4-carboxamide] | 10 to 100 | 
CC1(c2ccc3nc(Cn4cc(C(=O)NCc5ncn6ccc(Cl)cc56)cn4)cn3c2)CC1 [Example I-10, N-((7-chloroimidazo[1,5-a]pyridin-1-yl)methyl)-1-((6-(1-methylcyclopropyl)imidazo[1,2-a]pyridin-2-yl)methyl)-1H-pyrazole-4-carboxamide] | < 1 | 
Cc1c(C2CC2)ccc2nc(Cn3cc(C(=O)NCc4ncn5ccc(Cl)cc45)cn3)cn12 [Example I-13, N-((7-chloroimidazo[1,5-a]pyridin-1-yl)methyl)-1-((6-cyclopropyl-5-methylimidazo[1,2-a]pyridin-2-yl)methyl)-1H-pyrazole-4-carboxamide] | < 1 | 
O=C(NCc1ncn2ccc(Cl)cc12)c1cnn(Cc2cn3nc(C4CC4)ccc3n2)c1 [Example I-15, N-((7-chloroimidazo[1,5-a]pyridin-1-yl)methyl)-1-((6-cyclopropylimidazo[1,2-b]pyridazin-2-yl)methyl)-1H-pyrazole-4-carboxamide] | < 1 | 
Cc1cc2nc(Cn3cc(C(=O)NCc4ncn5ccc(Cl)cc45)cn3)cn2cc1C1CC1 [Example I-16, N-((7-chloroimidazo[1,5-a]pyridin-1-yl)methyl)-1-((6-cyclopropyl-7-methylimidazo[1,2-a]pyridin-2-yl)methyl)-1H-pyrazole-4-carboxamide] | 1 to 10 | 
Cc1cc2nc(Cn3cc(C(=O)NCc4ncn5ccc(Br)cc45)cn3)cn2cc1C1CC1 [Example I-17, N-((7-bromoimidazo[1,5-a]pyridin-1-yl)methyl)-1-((6-cyclopropyl-7-methylimidazo[1,2-a]pyridin-2-yl)methyl)-1H-pyrazole-4-carboxamide] | 1 to 10 | 
O=C(NCc1ncn2ccc(Cl)cc12)c1cnn(Cc2cn3cc(C(F)(F)F)ccc3n2)c1 [Example I-18, N-((7-chloroimidazo[1,5-a]pyridin-1-yl)methyl)-1-((6-(trifluoromethyl)imidazo[1,2-a]pyridin-2-yl)methyl)-1H-pyrazole-4-carboxamide] | 1 to 10 | 
O=C(NCc1ncn2ccc(Br)cc12)c1cnn(Cc2cn3cc(C(F)(F)F)ccc3n2)c1 [Example I-19, N-((7-bromoimidazo[1,5-a]pyridin-1-yl)methyl)-1-((6-(trifluoromethyl)imidazo[1,2-a]pyridin-2-yl)methyl)-1H-pyrazole-4-carboxamide] | 1 to 10 | 
O=C(NCc1ncn2ccc(Br)cc12)c1cnn(Cc2cn3cc(C4CC4)c(F)cc3n2)c1 [Example I-20, N-((7-bromoimidazo[1,5-a]pyridin-1-yl)methyl)-1-((6-cyclopropyl-7-fluoroimidazo[1,2-a]pyridin-2-yl)methyl)-1H-pyrazole-4-carboxamide] | 1 to 10 | 
O=C(NCc1ncn2ccc(Cl)cc12)c1cnn(Cc2cn3cc(C4CC4)c(F)cc3n2)c1 [Example I-21, N-((7-chloroimidazo[1,5-a]pyridin-1-yl)methyl)-1-((6-cyclopropyl-7-fluoroimidazo[1,2-a]pyridin-2-yl)methyl)-1H-pyrazole-4-carboxamide] | 1 to 10 | 
O=C(NCc1ncn2ccc(Cl)cc12)c1cnn(Cc2cn3c(C4CC4)cccc3n2)c1 [Example I-22, N-((7-chloroimidazo[1,5-a]pyridin-1-yl)methyl)-1-((5-cyclopropylimidazo[1,2-a]pyridin-2-yl)methyl)-1H-pyrazole-4-carboxamide] | 100 to 2000 | 
O=C(NCc1ncn2ccc(Cl)cc12)c1cnn(Cc2cn3c(Cl)c(C4CC4)ccc3n2)c1 [Example I-23, 1-((5-chloro-6-cyclopropylimidazo[1,2-a]pyridin-2-yl)methyl)-N-((7-chloroimidazo[1,5-a]pyridin-1-yl)methyl)-1H-pyrazole-4-carboxamide] | < 1 | 
O=C(NCc1ncn2ccc(Cl)cc12)c1cnn(Cc2cn3cc(C4CC4)c(Cl)cc3n2)c1 [Example I-24, 1-((7-chloro-6-cyclopropylimidazo[1,2-a]pyridin-2-yl)methyl)-N-((7-chloroimidazo[1,5-a]pyridin-1-yl)methyl)-1H-pyrazole-4-carboxamide] | 1 to 10 | 
O=C(NCc1ncn2ccc(Br)cc12)c1cnn(Cc2cn3cc(C4CC4)c(Cl)cc3n2)c1 [Example I-25, N-((7-bromoimidazo[1,5-a]pyridin-1-yl)methyl)-1-((7-chloro-6-cyclopropylimidazo[1,2-a]pyridin-2-yl)methyl)-1H-pyrazole-4-carboxamide] | 1 to 10 | 
Cc1ccc2nc(Cn3cc(C(=O)NCc4ncn5ccc(Br)cc45)cn3)cn2c1C [Example I-26, N-((7-bromoimidazo[1,5-a]pyridin-1-yl)methyl)-1-((5,6-dimethylimidazo[1,2-a]pyridin-2-yl)methyl)-1H-pyrazole-4-carboxamide] | 1 to 10 | 
O=C(NCc1ncn2ccc(Cl)cc12)c1cnn(Cc2cn3c(Br)cccc3n2)c1 [Example I-27, 1-((5-bromoimidazo[1,2-a]pyridin-2-yl)methyl)-N-((7-chloroimidazo[1,5-a]pyridin-1-yl)methyl)-1H-pyrazole-4-carboxamide] | 1 to 10 | 
Cc1cc2nc(Cn3cc(C(=O)NCc4ncn5ccc(Cl)cc45)cn3)cn2cc1Br [Example I-28, 1-((6-bromo-7-methylimidazo[1,2-a]pyridin-2-yl)methyl)-N-((7-chloroimidazo[1,5-a]pyridin-1-yl)methyl)-1H-pyrazole-4-carboxamide] | 1 to 10 | 
O=C(NCc1ncn2ccc(Cl)cc12)c1cn(Cc2cn3cc(C4CC4)ccc3n2)c2cccnc12 [Example I-29, N-((7-chloroimidazo[1,5-a]pyridin-1-yl)methyl)-1-((6-cyclopropylimidazo[1,2-a]pyridin-2-yl)methyl)-1H-pyrrolo[3,2-b]pyridine-3-carboxamide] |  | 10 to 100
O=C(NCc1ncn2ccc(Br)cc12)c1cn(Cc2cn3cc(C4CC4)ccc3n2)c2cccnc12 [Example I-30, N-((7-bromoimidazo[1,5-a]pyridin-1-yl)methyl)-1-((6-cyclopropylimidazo[1,2-a]pyridin-2-yl)methyl)-1H-pyrrolo[3,2-b]pyridine-3-carboxamide] |  | 1 to 10
COCc1nn(Cc2cn3cc(C4CC4)ccc3n2)cc1C(=O)NCc1ncn2ccc(Cl)cc12 [Example I-31, N-((7-chloroimidazo[1,5-a]pyridin-1-yl)methyl)-1-((6-cyclopropylimidazo[1,2-a]pyridin-2-yl)methyl)-3-(methoxymethyl)-1H-pyrazole-4-carboxamide] | < 1 | 
